In patent publication EP2019099A1, “Dpp-IV inhibitors” (Santhera Pharmaceuticals (Schweiz) AG, priority 2007, dated 2009):

Target: T1, DPP-IV (Homo sapiens, UniProt P27487)
T1 construct: Soluble human DPP-IV lacking the transmembrane anchor (Gly31-Pro766); Pre-Pro-alpha-mating factor leader (secretion fusion) (N, cleaved yes); made in house
Assay: Inhibition of DPP-IV peptidase activity, continuous fluorimetric assay (Gly-Pro-AMC cleavage)
Assay type: biochemical, human and porcine
Conditions: 50 pM DPP-IV, 16 µM substrate Gly-Pro-AMC, pH 7.4, 25 °C, values grouped in 2 classes
Experimental: Inhibition of DPP-IV peptidase activity was monitored with a continuous fluorimetric assay. This assay is based on the cleavage of the substrate Gly-Pro-AMC (Bachem) by DPP-IV, releasing free AMC. The assay is carried out in 96-well microtiterplates. In a total volume of 100 µL, compounds are preincubated with 50 pM DPP-IV employing a buffer containing 10mM Hepes, 150mM NaCl, 0.005% Tween 20 (pH 7.4). The reaction is started by the addition of 16 µM substrate and the fluorescence of liberated AMC is detected for 10 minutes at 25 °C with a fluorescence reader (BMG-Fluostar; BMG-Technologies) using an excitation wavelength of 370 nm and an emission wavelength of 450 nm. The final concentration of DMSO is 1 %. The inhibitory potential of the compounds were determined.
Soluble human DPP-IV lacking the transmembrane anchor (Gly31-Pro766) was expressed in a recombinant YEAST-strain as Pre-Pro-alpha-mating fusion. The secreted product (rhuDPP-IV-Gly31-Pro766) was purified from fermentation broth (>90% purity).
In table 1 are listed the IC50 values for inhibition of DPP-IV peptidase activity determined in assays as described above. The IC50 values were grouped in 2 classes: a ≤ 100 nM; b ≥101 nM and ≤ 1000 nM.

T1 sequence (P27487 31-766): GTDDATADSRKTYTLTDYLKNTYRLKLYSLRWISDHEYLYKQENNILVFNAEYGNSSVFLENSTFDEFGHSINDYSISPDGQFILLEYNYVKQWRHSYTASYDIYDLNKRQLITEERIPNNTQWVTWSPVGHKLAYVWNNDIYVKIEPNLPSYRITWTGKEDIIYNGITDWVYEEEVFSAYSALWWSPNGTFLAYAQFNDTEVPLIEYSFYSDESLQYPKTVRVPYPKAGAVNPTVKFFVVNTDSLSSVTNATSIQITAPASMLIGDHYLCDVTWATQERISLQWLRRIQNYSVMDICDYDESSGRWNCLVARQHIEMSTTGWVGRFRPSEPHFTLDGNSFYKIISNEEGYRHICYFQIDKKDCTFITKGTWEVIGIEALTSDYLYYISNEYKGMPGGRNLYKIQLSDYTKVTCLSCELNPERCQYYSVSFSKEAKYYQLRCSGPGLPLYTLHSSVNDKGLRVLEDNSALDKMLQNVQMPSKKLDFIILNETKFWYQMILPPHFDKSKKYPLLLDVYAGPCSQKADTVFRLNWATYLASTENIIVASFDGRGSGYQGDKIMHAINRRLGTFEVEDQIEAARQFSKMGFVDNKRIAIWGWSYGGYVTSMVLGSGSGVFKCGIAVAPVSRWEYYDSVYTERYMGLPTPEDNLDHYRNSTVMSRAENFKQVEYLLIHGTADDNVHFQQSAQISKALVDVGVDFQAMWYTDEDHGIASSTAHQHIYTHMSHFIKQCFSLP

SMILES | IC50
CC(C)c1ncc(C(=O)N2CCC([C@H](N)Cc3cc(F)c(F)cc3F)CC2)c(C2CC2)n1 [Example 5] | ≤ 100 nM
Cc1nc(C(F)(F)F)ncc1C(=O)N1CCC([C@H](N)Cc2cc(F)c(F)cc2F)CC1 [Example 2, {4-[(R)-1-Amino-2-(2,4,5-trifluoro-phenyl)-ethyl]-piperidin-1-yl}-(4-methyl-2-trifluoromethylpyrimidin-5-yl)-methanone] | ≤ 100 nM
Cc1ncc(C(=O)N2CCC([C@H](N)Cc3cc(F)c(F)cc3F)CC2)c(C)n1 [Example 1, {4-[(R)-1-Amino-2-(2,4,5-trifluoro-phenyl)-ethyl]-piperidin-1-yl}-(2,4-dimethyl-pyrimidin-5-yl)-methanone] | ≤ 100 nM
N[C@H](Cc1cc(F)c(F)cc1F)C1CCN(C(=O)c2cnc(C(F)(F)F)nc2C2CC2)CC1 [Example 4] | ≤ 100 nM
N[C@H](Cc1cc(F)c(F)cc1F)C1CCN(C(=O)c2cnc(-c3ccccn3)nc2C(F)(F)F)CC1 [Example 8] | ≤ 100 nM
Cc1nc(N)ncc1C(=O)N1CCC([C@H](N)Cc2cc(F)c(F)cc2F)CC1 [Example 7] | ≤ 100 nM
Cc1ncc(C(=O)N2CCC([C@H](N)Cc3cc(F)c(F)cc3F)CC2)c(C(F)(F)F)n1 [Example 6] | ≤ 100 nM
Cc1nc(-c2ccccc2)ncc1C(=O)N1CCC([C@H](N)Cc2cc(F)c(F)cc2F)CC1 [Example 9] | ≤ 100 nM
